For one data set, the target named is mushroom tyrosinase. Kind of data set: Examination for inhibition of tyrosinase activity (L-DOPA substrate, absorbance at 475 nm). It is filed as biochemical. As to conditions: for IC50: L-DOPA substrate, pH 8.8 phosphate buffer, 1.5 minutes, room temperature, read-out: ID50 (inhibition of tyrosinase activity). As for the experimental part: (1) EXAMINATION FOR INHIBITION OF TYROSINASE ACTIVITY
10 mg L-DOPA (guaranteed reagent) is dissolved at the time of examination in 20 ml of phosphate buffer described in 3) below and prepared 0.05% L-DOPA solution.
3) 0.1-M phosphate buffer
The buffer was prepared at pH 8.8.
Preparation of sample solution
The sample described in TABLE 1 below are diluted by ethanol to the concentration with 3 standards.
The measurement of the tyrosinase activity was carried out by a modified method of Pomerantz, using L-DOPA (guaranteed reagent) as the substrate and measuring the absorbance at 475 nm at which the absorption of dihydroxyphenylalanine chrome (reaction product) exists.
Namely, 1.0 ml of the L-DOPA solution and 1.8 ml of the phosphate buffer were added in 0.1 ml of the sample solutions. 0.1 ml of tyrosinase solution was added and mixed for reaction for 1.5 minutes at room temperature. The absorbance at 475 nm was measured by using a spectrophotometer (type 220 A Spectrophotometer, HITACHI corporation) and the measured value was expressed by T.
Also, 1.0 ml of distilled water instead of the L-DOPA solution. 1.8 ml of the phosphate buffers and 0.1 ml of the sample solutions were mixed, operated in the same way above, measured the absorbance and obtained the value T' as a reagent blank of the sample.
0.1 ml of ethanol instead of the sample solutions was added to the mixture of 1.0 mo of the L-DOPA and 1.8 ml of phosphate buffers, operated in the same way above and obtained the value C as a control.
1.8 ml of phosphate buffers and 0.1 ml of ethanol were added to 1.0 ml of distilled water instead of L-DOPA solution, operated in the same way above and obtained the value C' as a reagent blank of the control.
Inhibition of tyrosinase activity in each sample concentration were obtained by the following formula. The result was described as semilog graph of which a logarithmic scale indicates concentration of the sample and another scale indicates inhibition ratio of the activity.
Incidentally, the values T, T', C, and C' were measured three times and averages were used for the calculation.
Inhibition of tyrosinase activity (%)=100×[1-(T-T')/(C-C')]

Data set [1] relates to human skin. Put plainly: Examination for bleaching effect (lotion applied to sunlight-exposed skin, depression effect to the chromatosis). In kind it is in vivo. As to conditions: for bleaching effect: lotion with 1.0 wt % sample, each morning and evening, 8 weeks, 10 subjects per group; for improvement of bleaching effect by added ingredient (in words): added to preparation including 2-hydroxy alkoxybenzoic acid. Here is the method:
(2) E[…] BLEACHING EFFECT
Lotions were prepared by the following formula, using each sample. Namely, the alcohol phase and aqueous phase according to the following formula were prepared respectively, and both phases were mixed and dissolved according to an ordinal method. […]
______________________________________
Polyoxyethylene (25 moles) hydrogenated castor
Sodium hexametaphosphorate
Ion exchanged water balance
10 subjects for each group were exposed to sunlight in summer for 4 hours (2 hours×2 days). The lotion was applied to the facial skin of medialis brachii once each morning and evening […] after the day exposed to the sunlight for 8 weeks. After the application period, depression effect to the chromatosis which was caused by the ultraviolet irradiation was examined and evaluated, the degree of which was based on The following standard.
.circleincircle.: The number of the subjects who judged the result was "extremely effective" or "effective" were equal to or more than eight (Equal to or more than 80%).
.largecircle.: The number of the subjects who judged the result was "extremely effective" or "effective" were five to seven (from 50% less than 70%)
Δ: The number of the subjects who judged the result was "extremely effective" or "effective" were three to four (from 30% less than 40%)
×: The number of the subjects who judged the result was "extremely effective" or "effective" were less than two (less than 20%)
The inhibition effect to the tyrosinase activity which is essential for producing the melanine and bleaching effect for human skin by the 2-hydroxy alkoxybenzoic acid were examined by using samples described in TABLE 1.
The investigation for improvement of bleaching effect by adding other ingredients were carried out as described below.
Namely, the 2-hydroxy-3-methoxybenzoic acid as the 2-hydroxy alkoxy benzoic acid and sodium hyaluronate as the acid mucopolysaccharide were used for the examination of improvement of bleaching effect.
Lotions for the examination were prepared by adding 0.5 weight % of 2-hydroxy-3-methoxybenzoic acid into the alcohol phase and sodium hyaluronate into the aqueous phase of which the concentration as to be shown in TABLE 3.

The nature of the next data set: Stability of the samples. As to conditions: TABLE 1 and TABLE 2; symbols not defined.
Data set [2] deals with human skin. As to conditions: stated as known; cited from earlier work.

Consider `COc1cccc(C(=O)O)c1O` [Example 1, 2-hydroxy-3-methoxybenzoic acid], for which the IC50 on mushroom tyrosinase was determined as 21 mM. The bleaching effect result in the data set with human skin [1] is recorded as “.circleincircle. (The number of the subjects who judged the result was "extremely effective" or "effective" were equal to or more than eight (Equal to or more than 80%))”. Further, the stability result in the data set “Stability of the samples” is recorded as “.smallcircle”.
Consider `COc1ccc(C(=O)O)c(O)c1` [Example 2, 2-hydroxy-4-methoxybenzoic acid], for which the IC50 on mushroom tyrosinase was found to be 1 mM. Moreover, the bleaching effect result with human skin [1] is recorded as “.circleincircle. (The number of the subjects who judged the result was "extremely effective" or "effective" were equal to or more than eight (Equal to or more than 80%))”.
Take `COc1ccc(O)c(C(=O)O)c1` [Example 3, 2-hydroxy-5-methoxybenzoic acid]: the IC50 at mushroom tyrosinase was 4.5 mM. Besides, the bleaching effect entry in the data set with human skin [1] was “.circleincircle. (The number of the subjects who judged the result was "extremely effective" or "effective" were equal to or more than eight (Equal to or more than 80%))”. Also, the stability entry in the data set “Stability of the samples” is on record as “.smallcircle”.
On the same counts, the results for `CCOc1ccc(C(=O)O)c(O)c1` [Example 4, 2-hydroxy-4-ethoxybenzoic acid] are 2 mM, “.circleincircle. (The number of the subjects who judged the result was "extremely effective" or "effective" were equal to or more than eight (Equal to or more than 80%))” and “.smallcircle”.
For `Cc1cccc(C(=O)O)c1O` [Example 5, 2-hydroxy-3-methylbenzoic acid], the bleaching effect result with human skin [1] is reported as “.circleincircle. (The number of the subjects who judged the result was "extremely effective" or "effective" were equal to or more than eight (Equal to or more than 80%))”.
In the case of `Cc1ccc(C(=O)O)c(O)c1` [Example 6, 2-hydroxy-4-methylbenzoic acid], the bleaching effect result with human skin [1] is given as “.circleincircle. (The number of the subjects who judged the result was "extremely effective" or "effective" were equal to or more than eight (Equal to or more than 80%))”. Also, the stability entry in “Stability of the samples” is given as “.smallcircle”.
`Cc1ccc(O)c(C(=O)O)c1` [Example 7, 2-hydroxy-5-methylbenzoic acid]: the bleaching effect result with human skin [1] is reported as “.circleincircle. (The number of the subjects who judged the result was "extremely effective" or "effective" were equal to or more than eight (Equal to or more than 80%))”. Besides, in “Stability of the samples”, the stability entry is “.smallcircle”.
Taken in the same sequence, the figures for `CCc1ccc(C(=O)O)c(O)c1` [Example 8, 2-hydroxy-4-ethylbenzoic acid] were “.circleincircle. (The number of the subjects who judged the result was "extremely effective" or "effective" were equal to or more than eight (Equal to or more than 80%))” and “.smallcircle”.
`Oc1ccc(O)cc1` [a, hydroquinone, reference compound]: at mushroom tyrosinase, the IC50 came out at 4.2 mM. For the same molecule, the bleaching effect result with human skin [1] is given as “Δ (The number of the subjects who judged the result was "extremely effective" or "effective" were three to four (from 30% less than 40%))”. Besides, the “side effect (known)” value with human skin [2] is “have side effect”.
`O=C(O)c1cc(O)ccc1O` [b, gentisic acid, reference compound]: the IC50 at mushroom tyrosinase is 13.6 mM. In addition, the bleaching effect entry with human skin [1] is “Δ (The number of the subjects who judged the result was "extremely effective" or "effective" were three to four (from 30% less than 40%))”. Also, in the data set with human skin [2], the “side effect (known)” value was “have side effect”. In addition, in the data set “Stability of the samples”, the stability result is given as “Δ”.
As for `O=C1O[C@H]([C@@H](O)CO)C(O)=C1O` [c, ascorbic acid, reference compound], in the data set with mushroom tyrosinase, the “inhibition of tyrosinase activity (in words)” value is on record as “high inhibition effect” and the IC50 amounted to 0.3 mM. In the data set with human skin [1] (in vivo), the “bleaching effect (in words)” value was “rather low level”. Further, the bleaching effect result in the data set with human skin [1] is listed as “.smallcircle”.
Turning to `O=C(O)CN(CCN(CC(=O)O)CC(=O)O)CC(=O)O` [disodium ethylenediamine tetraacetate], in the data set with human skin [1], the “improvement of bleaching effect by added ingredient (in words)” value is listed as “excellent improvement effect of bleaching”.
Same read-out and setting: the entry for `CCOC(=O)c1ccc(O)cc1` [ethyl p-hydroxybenzoate] is “excellent improvement effect of bleaching”.
Still for that read-out and setting: with `COC(=O)c1ccc(O)cc1` [methyl p-hydroxybenzoate] the entry was “excellent improvement effect of bleaching”.
For `COc1ccc(C(=O)[O-])c(O)c1.[K+]` [potassium 2-hydroxy-4-methoxybenzoate], the “subjects who judged the effect was "extremely effective" or "effective"” value in the data set with human skin [1] (bleaching effect examination, lotion) was found to be 80%.
Regarding `CC(=O)Oc1c(C)c(C)c2c(c1C)CCC(C)(CCC[C@H](C)CCC[C@H](C)CCCC(C)C)O2` (some centres unmarked) [tocopherol acetate], in the data set with human skin [1], the “improvement of bleaching effect by added ingredient (in words)” value is “excellent improvement effect of bleaching”.
Still for that read-out and setting: with sodium hyaluronate the entry was “extremely improved”.

These data come from patent US5580549A, “External preparation for skin” (priority 1992, dated 1996).
